The experiment has as its system patients with heart failure after an acute myocardial infarction. Kind of experiment: Example 20 clinical study: eplerenone plus CCB in heart failure following acute myocardial infarction. The class given is in vivo, human. An excerpt:
Clinical Study: Safety and Efficacy of Eplerenone When Co-Administered with a Calcium-Channel Blocker in Patients with Heart Failure Followin Acute Myocardial Infarctiong
Secondary endpoints include cardiovascular morbidity and mortality. The study is a multicenter, randomized, double-blind, placebo-controlled, two-arm, parallel group trial that will continue until 1,012 deaths occur, which is estimated to require approximately 6,200 randomized patients followed for an average of approximately 2.5 years.
Eligible patients may be identified for inclusion at any time following emergency room evaluation and presumptive diagnosis of AMI with HF. […]
Patients will receive CCB therapy and may have received anticoagulants and antiplatelet agents, and may have received thrombolytics or emergency angioplasty. […] Serum potassium will be determined at 48 hours after initiation of treatment, at 1 and 5 weeks, at all other scheduled study visits, and within one week following any dose change.
Study visits will occur at screening, baseline (randomization), 1 and 4 weeks, 3 months, and every 3 months thereafter until the study is terminated. […] Vital signs (seated heart rate and BP), New York Heart Association (NYHA) functional class, adverse events, and selected concurrent medications will be recorded at every visit. […]

Here are results for 1 compound from patent US20030220310A1, “Epoxy-steroidal aldosterone antagonist and calcium channel blocker combination therapy for treatment of congestive heart failure” (priority 2003, published 2003).

In the case of `COC(=O)[C@@H]1CC2=CC(=O)CC[C@]2(C)C23O[C@@H]2C[C@@]2(C)[C@@H](CC[C@@]24CCC(=O)O4)[C@H]13` (stereo partly drawn) [eplerenone, Pregn-4-ene-7,21-dicarboxylic acid, 9,11-epoxy-17-hydroxy-3-oxo-,γ-lactone, methyl ester, (7α,11α,17β)-], the “primary end point of all cause mortality” value (eplerenone plus CCB relative to CCB alone) is recorded as “Improvement”. Also, the “secondary end points (cardiovascular mortality, hospitalizations, quality of life etc.)” value (eplerenone plus CCB versus CCB alone) is “Beneficial effects”.
